Active and inactive are the calls of the source.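 The calls were made as follows: active = peak hERG channel inhibition above 30% at some tested dose, together with a fitted dose response curve; inactive = no hERG inhibition at any dose, or no curve.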
target: Voltage-gated inwardly rectifying potassium channel KCNH2 (Homo sapiens) (UniProt Q12809); experiment: hERG channel inhibition, SAR follow-up, selectivity assay for KCNK9 inhibitor project, FluxOR Tl flux, hERG cells, CRC 2 (AID 540323); conditions: hERG-expressing cells, FluxOR thallium flux fluorescence; at 30 µM (top of the series); test wells contain dofetilide at its IC70
Sequence (Q12809 whole entry, looked up): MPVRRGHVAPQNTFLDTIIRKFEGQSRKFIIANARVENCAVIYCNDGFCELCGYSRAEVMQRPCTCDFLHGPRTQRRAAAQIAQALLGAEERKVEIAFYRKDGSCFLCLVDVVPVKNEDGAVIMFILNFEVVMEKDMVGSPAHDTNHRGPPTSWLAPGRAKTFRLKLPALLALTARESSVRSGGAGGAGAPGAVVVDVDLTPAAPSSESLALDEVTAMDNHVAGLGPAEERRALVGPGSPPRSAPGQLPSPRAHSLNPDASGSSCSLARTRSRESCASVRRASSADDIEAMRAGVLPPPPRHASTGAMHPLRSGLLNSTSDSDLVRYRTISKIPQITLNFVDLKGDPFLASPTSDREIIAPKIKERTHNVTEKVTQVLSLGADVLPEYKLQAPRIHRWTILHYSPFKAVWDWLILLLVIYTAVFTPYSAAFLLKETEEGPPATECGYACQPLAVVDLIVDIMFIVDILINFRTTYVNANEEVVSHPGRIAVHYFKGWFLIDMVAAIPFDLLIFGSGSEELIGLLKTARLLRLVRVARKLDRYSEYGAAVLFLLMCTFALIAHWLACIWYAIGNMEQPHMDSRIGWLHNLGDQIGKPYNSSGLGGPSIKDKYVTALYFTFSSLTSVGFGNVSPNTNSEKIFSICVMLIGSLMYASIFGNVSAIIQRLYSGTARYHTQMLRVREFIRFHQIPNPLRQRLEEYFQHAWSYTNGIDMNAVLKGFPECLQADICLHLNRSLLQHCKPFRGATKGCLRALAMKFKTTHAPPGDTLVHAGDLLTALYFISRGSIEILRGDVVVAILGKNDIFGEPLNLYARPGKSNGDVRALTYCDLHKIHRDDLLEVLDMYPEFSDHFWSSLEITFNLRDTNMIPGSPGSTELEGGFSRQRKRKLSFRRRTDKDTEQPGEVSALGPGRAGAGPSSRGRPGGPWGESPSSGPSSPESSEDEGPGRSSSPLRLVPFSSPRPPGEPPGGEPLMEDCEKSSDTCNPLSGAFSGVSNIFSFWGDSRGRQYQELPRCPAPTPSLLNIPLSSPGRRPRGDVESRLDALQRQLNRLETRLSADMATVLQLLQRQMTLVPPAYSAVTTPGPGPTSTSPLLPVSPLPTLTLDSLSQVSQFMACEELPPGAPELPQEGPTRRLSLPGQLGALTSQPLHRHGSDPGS

| Compound | fluorescence ratio, lower = inhibition |
| --- | --- |
| CCOc1ccccc1NC(=O)c1cccc(NC(=O)c2ccccc2OC(F)(F)F)c1 | inactive |
| Cc1cccc(C(=O)Nc2cccc(NC(=O)c3ccccc3C(F)(F)F)c2)c1 | inactive |
| CCOc1ccccc1NC(=O)c1cccc(NC(=O)C(C)(C)C)c1 | inactive |
| CCOc1ccccc1C(=O)Nc1cccc(NC(=O)c2ccccc2C(F)(F)F)c1 | inactive |
| CC(C1CC2CCC1C2)n1c(-c2ccc(Cl)cc2)n[nH]c1=S (stereo not drawn) | inactive |
| COc1ccccc1C(=O)Nc1cccc(NC(=O)c2cccc(C)c2)c1 | inactive |
| CC(C1CC2CCC1C2)n1c(-c2cccc(Cl)c2)n[nH]c1=S (stereo not drawn) | inactive |
| Cc1cccc(C(=O)Nc2cccc(NC(=O)c3ccco3)c2)c1 | inactive |

From PubChem BioAssay AID540323 (Johns Hopkins Ion Channel Center, 2011)
